In patent US20050256179A1, “Selective pharmacologic inhibition of protein trafficking and related methods of treating human diseases” (priority 2003, published 2005):

Key:
Format in all cases: cell-based
HSV-2 [1] = experiment: Spread of HSV-2 in infected cultures (glycoprotein E labeling); conditions: 300 ng/ml applied 16 hr prior to virus inoculation
Method: The effect of AVP 893 on the spread of viral infection was further investigated. AVP 893 (at 300 ng/ml) was applied 16 hr prior to virus inoculation. Time points shown in FIG. 45 represent the hours after virus inoculation. […] In addition to the immunocytochemistry work shown in FIG. 45, extensive in vitro plaque assays were performed on HSV-1 and -2, as well as other families of virus that use the golgi in their life cycle (see Table 2).
We determined whether viral particles (as visualized in FIG. 45 by labeling HSV-2 glycoprotein E) spread beyond the initial site of infection in the presence of AVP 893. HSV-2-infected cultures were treated with AVP 893. […] Other HSV proteins including gB, gD, and the capsid protein ICP5 were also examined with similar results (data not shown). […] Furthermore, AVP 893 didn't appear to stop the initial infection of the culture, only the subsequent spread of the virus.

GS28 mRNA = GS28 mRNA by RT-PCR in human PBL; conditions: 3 to 16 hours following addition of drug
Method: Human buffy coats were purchased from the San Diego Blood Bank. Buffy Coat was purified of red blood cells using Histopaque-1077 following Sigma Diagnostic protocol. Lymphocytes (20 million) were then cultured in 75 cm2 flasks in cDMEM (+/−stimulus & AVP 893) for either 4 or 24 hrs. Cells were harvested and reconstituted in a Guanidine/Phenol solution essentially as described by Maniatis. The aqueous layer was removed and washed with Guanidine solution and finally 70% EtOH. RNA purity was checked by spectrophotometer. RT-PCR (36 cycles) was performed following the RT-PCR One-Step protocol (Qiagen). Similar results were obtained when testing mRNA samples obtained from other cell sources (not shown).

HSV-2 [2] = experiment: HSV-2 plaque formation in Vero cells
Method: An important potential consequence of blocking normal vesicle movement between the ER and golgi is the inhibition of viral protein maturation and intracellular propagation. Most viruses rely on the classical ER-to-golgi pathway for assimilating its proteins and, ultimately, infectivity. Brefeldin A causes the accumulation of viral proteins in the ER-golgi. The capacity of AVP 893 to inhibit viral propagation was tested in vitro by infecting Vero cells with HSV-2 and observing the effect of increasing concentrations of drug (FIG. 44). Vero cells (1 million/ml) were cultured overnight and inoculated with about 150 PFU of live type 2 Herpes Virus (HSV-2, ATCC) about 1 hour after addition of AVP 893. After 48 hours, media was removed and the cells washed with saline and stained with Biological Plaque Stain for 20 min. One ml of water was added and the liquid removed before quantifying virus by enumerating PFU.

nicastrin = experiment: Nicastrin expression/maturation by Western blotting
Method: (§1) The culture medium was removed by vacuuming (for attached cells) or by low speed centrifugation (for suspension cells) for 5-7 minutes at room temperature. The cells were wasedh twith PBS, spun at 1200 rpm and the cell pellets were kept on ice. 300 μl/2.0×10^7 cells of ice cold lysis buffer was added with freshly added protease inhibitors. Cell pellets were gently resuspended and incubated on ice for at least 30 min, vortexed a few times during incubation. Cell lysate was spun at 14,000 rpm for 2-5 min at 4° C. The supernatant was transferred to a new microfuge tube and the pellet was discarded. An aliquot of sample was mixed with an equal volume of 2× sample buffer (InVitrogen), and stored at −80° C. Protein concentration was determined by using “BCA protein assay reagent kit” from Pierce.
(§2) Protein samples (in sample buffer) were boiled for 1-3 minutes and put on ice. Same amount of protein were loaded on the NuPage gel (InVitrogen). […]
(§3) To further examine the putative protein trafficking effects of AVP 893, other proteins in this pathway were tested in vitro in B16 and other cell lines. […] Other cell lines were tested for their expression of GS28 and nicastrin and found to respond similarly to drug, although quantitative differences were evident. […]

calnexin = experiment: Calnexin expression by Western blotting (control)
Method: as §1, §2, §3

SMILES: O=C(Nc1ccc(-c2nc3cc(NC(=O)C4CCCCC4)ccc3[nH]2)cc1)C1CCCCC1 [AVP 893]
- spread of HSV-2 beyond the initial site of infection (HSV-2 [1]): blocked the spread of HSV-2 virus particles
- level of GS28 mRNA (GS28 mRNA): did not affect the level of GS28 mRNA
- plaque formation (HSV-2 [2]; HSV-2, 48 hours): suppressed plaque formation at all concentrations tested
- concentration giving total block of plaque formation (HSV-2 [2]; about 150 PFU HSV-2, 48 hours): 300 ng/mL
- IC50 for mature nicastrin expression (nicastrin; 3T3 cells, overnight): 10 and 100 ng/ml
- levels of mature nicastrin (nicastrin; 3T3 fibroblast cell line): virtually eliminated
- levels of calnexin (calnexin; drug-treated cell lines): unchanged
- calnexin expression (calnexin; stimulated BALB/c spleen cells, 100 ng/ml, 20 hours): minimally affected
